Measurements as given in patent US7659404B2, “Broad spectrum 2-(substituted-amino)-benzothiazole sulfonamide HIV protease inhibitors” (Tibotec Pharmaceuticals Ltd., priority 2001, dated 2010).

Assays:
[1] = test system: clinically isolated HIV strain R; experiment: Antiviral spectrum, cellular assay (fold resistance), strain R; format: cell-based; settings: FR=EC50(mutant strain)/EC50(HIV-1 strain LAI)
Description: (§1) HIV- or mock-infected MT4 cells were incubated for five days in the presence of various concentrations of the inhibitor. At the end of the incubation period, all HIV-infected cells have been killed by the replicating virus in the control cultures in the absence of any inhibitor. Cell viability is measured by measuring the concentration of MTT, a yellow, water soluble tetrazolium dye that is converted to a purple, water insoluble formazan in the mitochondria of living cells only. Upon solubilization of the resulting formazan crystals with isopropanol, the absorbance of the solution is monitored at 540 nm. The values correlate directly to the number of living cells remaining in the culture at the completion of the five day incubation. The inhibitory activity of the compound was monitored on the virus-infected cells and was expressed as EC50 and EC90. These values represent the amount of the compound required to protect 50% and 90%, respectively, of the cells from the cytopathogenic effect of the virus. The toxicity of the compound was measured on the mock-infected cells and was expressed as CC50, which represents the concentration of compound required to inhibit the growth of the cells by 50%. The selectivity index (SI) (ratio CC50/EC50) is an indication of the selectivity of the anti-HIV activity of the inhibitor.
(§2) Because of the increasing emergence of drug resistant HIV strains, the present compounds were tested for their potency against clinically isolated HIV strains harboring several mutations. These mutations are associated with resistance to protease inhibitors and result in viruses that show various degrees of phenotypic cross-resistance to the currently commercially available drugs such as for instance saquinavir, ritonavir, nelfinavir, indinavir and amprenavir.
(§3) As a measure of the broad spectrum activity of the present compounds, the fold resistance (FR) defined as FR=EC50(mutant strain)/EC50(HIV-1 strain LAI).

[2] = test system: clinically isolated HIV strain G; experiment: Antiviral spectrum, cellular assay (fold resistance), strain G; format: cell-based; settings: FR=EC50(mutant strain)/EC50(HIV-1 strain LAI)
Description: as §1, §2, §3

[3] = test system: clinically isolated HIV strain O; format: cell-based; settings: FR=EC50(mutant strain)/EC50(HIV-1 strain LAI)
Outline: (§4)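 HIV-infected MT4 cells were incubated five days with inhibitor, and viability was read by MTT reduction at 540 nm. EC50/EC90 are the concentrations protecting 50%/90% of cells from viral cytopathic effect. Fold resistance is EC50 against the clinical isolate divided by EC50 against HIV-1 LAI.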

[4] = test system: clinically isolated HIV strain I; format: cell-based; settings: FR=EC50(mutant strain)/EC50(HIV-1 strain LAI)
Outline: as §4

[5] = test system: clinically isolated HIV strain T; format: cell-based; settings: FR=EC50(mutant strain)/EC50(HIV-1 strain LAI)
Outline: as §4

[6] = test system: clinically isolated HIV strain J; format: cell-based; settings: FR=EC50(mutant strain)/EC50(HIV-1 strain LAI)
Outline: as §4

[7] = test system: clinically isolated HIV strain H; format: cell-based; settings: FR=EC50(mutant strain)/EC50(HIV-1 strain LAI)
Outline: as §4

[8] = test system: clinically isolated HIV strain P; experiment: Antiviral spectrum, cellular assay (fold resistance), strain P; format: cell-based; settings: FR=EC50(mutant strain)/EC50(HIV-1 strain LAI)
Description: as §1, §2, §3

[9] = test system: clinically isolated HIV strain N; experiment: Antiviral spectrum, cellular assay (fold resistance), strain N; format: cell-based; settings: FR=EC50(mutant strain)/EC50(HIV-1 strain LAI)
Description: as §1, §2, §3

[10] = test system: clinically isolated HIV strain M; experiment: Antiviral spectrum, cellular assay (fold resistance), strain M; format: cell-based; settings: FR=EC50(mutant strain)/EC50(HIV-1 strain LAI)
Description: as §1, §2, §3

[11] = test system: clinically isolated HIV strain L; experiment: Antiviral spectrum, cellular assay (fold resistance), strain L; format: cell-based; settings: FR=EC50(mutant strain)/EC50(HIV-1 strain LAI)
Description: as §1, §2, §3

[12] = test system: clinically isolated HIV strain C; experiment: Antiviral spectrum, cellular assay (fold resistance), strain C; format: cell-based; settings: FR=EC50(mutant strain)/EC50(HIV-1 strain LAI)
Description: as §1, §2, §3

[13] = test system: clinically isolated HIV strain E; experiment: Antiviral spectrum, cellular assay (fold resistance), strain E; format: cell-based; settings: FR=EC50(mutant strain)/EC50(HIV-1 strain LAI)
Description: as §1, §2, §3

[14] = test system: clinically isolated HIV strain A; experiment: Antiviral spectrum, cellular assay (fold resistance), strain A; format: cell-based; settings: FR=EC50(mutant strain)/EC50(HIV-1 strain LAI)
Description: as §1, §2, §3

[15] = test system: clinically isolated HIV strain B; experiment: Antiviral spectrum, cellular assay (fold resistance), strain B; format: cell-based; settings: FR=EC50(mutant strain)/EC50(HIV-1 strain LAI)
Description: as §1, §2, §3

[16] = test system: virus strain S (R13080); experiment: microbe, parasite or virus in culture; format: cell-based, HIV; settings: FR=EC50(mutant strain)/EC50(HIV-1 strain LAI); strain S
Outline: as §4

[17] = test system: virus strain F (R13025); experiment: microbe, parasite or virus in culture; format: cell-based, HIV; settings: FR=EC50(mutant strain)/EC50(HIV-1 strain LAI); strain F
Outline: as §4

[18] = test system: clinically isolated HIV strain K; experiment: Antiviral spectrum, cellular assay (fold resistance), strain K; format: cell-based; settings: FR=EC50(mutant strain)/EC50(HIV-1 strain LAI)
Description: as §1, §2, §3

[19] = test system: clinically isolated HIV strain Q; experiment: Antiviral spectrum, cellular assay (fold resistance), strain Q; format: cell-based; settings: FR=EC50(mutant strain)/EC50(HIV-1 strain LAI)
Description: as §1, §2, §3

[20] = test system: clinically isolated HIV strain D; experiment: Antiviral spectrum, cellular assay (fold resistance), strain D; format: cell-based; settings: FR=EC50(mutant strain)/EC50(HIV-1 strain LAI)
Description: as §1, §2, §3

Row | Structure (SMILES) | fold resistance (FR), strain R [1] | fold resistance (FR), strain G [2] | fold resistance (FR), strain O [3] | fold resistance (FR), strain I [4] | fold resistance (FR), strain T [5] | fold resistance (FR), strain J [6] | fold resistance (FR), strain H [7] | fold resistance (FR), strain P [8] | fold resistance (FR), strain N [9] | fold resistance (FR), strain M [10] | fold resistance (FR), strain L [11] | fold resistance (FR), strain C [12] | fold resistance (FR), strain E [13] | fold resistance (FR), strain A [14] | fold resistance (FR), strain B [15] | fold resistance (FR), strain S [16] | fold resistance (FR), strain F [17] | fold resistance (FR), strain K [18] | fold resistance (FR), strain Q [19] | fold resistance (FR), strain D [20]
1 | CC(C)CN(C[C@@H](O)[C@H](Cc1ccccc1)NC(=O)O[C@H]1CO[C@H]2OCC[C@H]21)S(=O)(=O)c1ccc2nc(NC(=O)CN3CCCC3)sc2c1.O=C(O)/C=C/C(=O)O [Compound 13] | 0.2 | 0.2 | 0.3 | 0.3 | 5.8 | 0.2 | 0.6 | 0.2 | 1.0 | 0.2 | 0.1 | 0.2 | 0.2 | 0.2 | 0.2 | 1.0 | 0.6 | 0.2 | 0.4 | 0.2
2 | CC(C)CN(C[C@@H](O)[C@H](Cc1ccccc1)NC(=O)O[C@H]1CO[C@H]2OCC[C@H]21)S(=O)(=O)c1ccc2nc(NC(=O)CN3CCCC3)sc2c1.Cl [Compound 14] | 0.2 | 0.2 | 0.3 | 0.4 | 5.9 | 0.3 | 0.5 | 0.2 | 0.9 | 0.2 | 0.1 | 0.2 | 0.3 | 0.2 | 0.2 | 0.7 | 0.4 | 0.2 | 0.3 | 0.2
3 | CC(C)CN(C[C@@H](O)[C@H](Cc1ccccc1)NC(=O)O[C@H]1CO[C@H]2OCC[C@H]21)S(=O)(=O)c1ccc2nc(NC(=O)CN3CCCC3)sc2c1.O=C(O)C(=O)O [Compound 15] | 0.2 | 0.3 | 0.2 | 0.3 | 7.2 | 0.3 | 0.5 | 0.1 | 0.4 | 0.2 | 0.1 | 0.3 | 0.3 | 0.3 | 0.2 | 0.8 | 0.5 | 0.3 | 0.2 | 0.3
4 | CC(C)CN(C[C@@H](O)[C@H](Cc1ccccc1)NC(=O)O[C@H]1CCOC1)S(=O)(=O)c1ccc2nc(NC(=O)CN(C)C)sc2c1 [Compound 34] | 1.1 | 3.2 | 5.0 | 5.6 | 802.7 | 5.8 | 11.4 | 0.9 | 4.0 | 1.2 | 1.2 | 5.5 | 4.5 | 5.0 | 5.9 | 99.6 | 61.9 | 1.3 | 4.0 | 6.6
5 | CC(C)CN(C[C@@H](O)[C@H](Cc1ccccc1)NC(=O)O[C@H]1CCOC1)S(=O)(=O)c1ccc2nc(NC(=O)CN3CCNCC3)sc2c1 [Compound 35] | 0.9 | 0.5 | 0.3 | 0.8 | 22.2 | 0.8 | 0.8 | 0.2 | 1.1 | 0.6 | 0.2 | 0.6 | 0.9 | 0.5 | 0.9 | 4.3 | 2.1 | 0.4 | 0.9 | 0.5
6 | Cc1cccc(C)c1OCC(=O)N[C@@H](Cc1ccccc1)[C@H](O)CN(CC(C)C)S(=O)(=O)c1ccc2nc(NC(=O)CN3CCCC3)sc2c1 [Compound 37] | 1.5 | 1.3 | 7.3 | 6.8 | 185.8 | 5.0 | 4.1 | 0.3 | 1.4 | 5.0 | 2.1 | 3.8 | 1.6 | 6.1 | 1.9 | 10.0 | 6.1 | 0.5 | 3.8 | 1.4
7 | CC(C)CN(C[C@@H](O)[C@H](Cc1ccccc1)NC(=O)O[C@H]1CCOC1)S(=O)(=O)c1ccc2nc(NC(=O)CN3CCN(C)CC3)sc2c1.O=C(O)C(F)(F)F [Compound 64] | 0.6 | 0.6 | 0.8 | 1.3 | 165.5 | 1.0 | 0.9 | 0.2 | 0.9 | 0.7 | 0.2 | 0.6 | 0.7 | 0.7 | 0.7 | 17.0 | 4.6 | 0.7 | 2.3 | 0.6
